Results: patent US20260098026A1, “M4 ACTIVATORS/MODULATORS AND USES THEREOF” (Cerevel Therapeutics, LLC, priority 2022, published 2026)

Key:
[1] = biological target: T1, M3 muscarinic acetylcholine receptor (mAChR) (Homo sapiens, UniProt P20309); test: FLIPR calcium assay (Fluo 8), M3-overexpressing CHO-K1 cells; type: cell-based
T1 construct: expressed in transfected cells; host or cells: CHO-K1
Protocol: Stimulation of a Gq-coupled G-protein coupled receptors (GPCRs), result in an efflux of calcium from the endoplasmic reticulum to the cytoplasm (Berridge, 1993), thus rendering this assay appropriate for the assessment of M1, M3 and M5 receptors. CHO-K1 cells overexpressing the M1, M3, or M5 muscarinic acetylcholine receptor (mAChR) were dispensed at 15,000 cells per well in 30 μl volume to 384-well plates and grown overnight at 37° C. in a 5% CO2 atmosphere. Fluo-8 Solution, 10 μl per well, was added to each well and incubated for 30 minutes at 37° C. in a 5% CO2 atmosphere. Compounds diluted in Hanks' balanced salt solution (HBSS) were transferred to the cell assay plate at 10 μl per well, and then read on a FLIPR instrument. EC50 and Emax figures were calculated from the resulting data for each receptor subtype.

M4 mAChR = biological target: T2, M4 mAChR (Homo sapiens, UniProt P08173); test: cAMP TR-FRET assay with forskolin, M4-overexpressing CHO-K1 cells; type: cell-based
T2 construct: expressed in transfected cells; host or cells: CHO-K1
T2 sequence (P08173 1-479): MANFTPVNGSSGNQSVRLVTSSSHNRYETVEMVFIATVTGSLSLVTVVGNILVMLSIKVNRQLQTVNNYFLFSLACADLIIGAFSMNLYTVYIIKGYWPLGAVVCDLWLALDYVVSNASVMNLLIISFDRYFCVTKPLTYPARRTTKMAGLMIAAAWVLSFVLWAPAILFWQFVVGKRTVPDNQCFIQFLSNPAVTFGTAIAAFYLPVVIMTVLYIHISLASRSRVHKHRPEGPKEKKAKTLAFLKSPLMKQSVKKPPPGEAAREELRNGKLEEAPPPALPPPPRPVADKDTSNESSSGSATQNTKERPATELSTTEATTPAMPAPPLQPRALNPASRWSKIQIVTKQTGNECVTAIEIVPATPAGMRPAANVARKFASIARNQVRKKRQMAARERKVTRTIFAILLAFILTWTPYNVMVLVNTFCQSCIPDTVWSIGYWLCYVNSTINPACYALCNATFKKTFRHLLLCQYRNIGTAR
Text: The M2 and M4 mACh receptors are Gi-coupled receptors which, upon activation, produce a decrease in cAMP. Assays were developed that measured the potency and efficacy of compounds at the M2 or M4 mAChR using M2- or M4-overexpressing CHO-K1 cell lines. Time-resolved fluorescence resonance energy transfer (TR-FRET) technology was used, where signal occurs as a result of transfer of energy if the donor molecule is in close proximity to an acceptor molecule when the molecules have bound to the molecule of interest. The cAMP detection is a competition binding assay, where cAMP produced by cells competes for binding with the labeled donor molecule to the anti-cAMP acceptor antibody. Due to the low basal levels of cAMP in the CHO-K1 cell line, forskolin was used to increase cAMP levels to enable assessment of agonist activity at the mAChR of interest.

T1 sequence (P20309 whole entry): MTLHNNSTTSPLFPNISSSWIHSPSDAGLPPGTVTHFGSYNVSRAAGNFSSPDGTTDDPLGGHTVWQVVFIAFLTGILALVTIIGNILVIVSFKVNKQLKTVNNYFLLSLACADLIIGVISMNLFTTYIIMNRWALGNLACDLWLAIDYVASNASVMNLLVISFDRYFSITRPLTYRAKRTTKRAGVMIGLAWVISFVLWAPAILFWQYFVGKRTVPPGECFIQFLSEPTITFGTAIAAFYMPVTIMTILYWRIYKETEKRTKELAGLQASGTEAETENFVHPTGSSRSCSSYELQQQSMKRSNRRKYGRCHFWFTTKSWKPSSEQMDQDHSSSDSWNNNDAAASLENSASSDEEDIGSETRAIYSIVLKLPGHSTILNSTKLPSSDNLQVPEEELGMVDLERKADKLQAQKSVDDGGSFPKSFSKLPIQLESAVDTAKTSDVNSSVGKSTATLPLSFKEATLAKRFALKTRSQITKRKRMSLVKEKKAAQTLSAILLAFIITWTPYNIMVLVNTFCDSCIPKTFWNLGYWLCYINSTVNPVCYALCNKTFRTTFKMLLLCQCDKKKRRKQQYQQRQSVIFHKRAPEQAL

Compound | EC50 ([1]; FLIPR) | Emax (M4 mAChR; cAMP assay) | EC50 ([1]; FLIPR calcium) | Emax (M4 mAChR; cAMP TR-FRET with forskolin)
CCOC(=O)N1CC2(CC[C@@H](N3CCN(c4cc(Cl)cnc4-n4cc(C)nn4)CC3)C2)C1 [Compound A247] | > 10 µM | 80 to 100% |  | 
CCOC(=O)N1CC2(CC[C@@H](N3CCN(c4cc(F)cnc4-c4ccnc(F)c4)CC3)C2)C1 [Compound A55] |  |  | > 10 µM | 80 to 100%
CCOC(=O)N1CC2(CC[C@@H](N3CCN(c4cc(F)cnc4-c4ccc(C#N)cc4OC)CC3)C2)C1 [Compound A94] |  |  | > 10 µM | 80 to 100%
CCOC(=O)N1CC2(CC[C@@H](N3CCN(c4cc(Cl)cnc4-c4cnccn4)CC3)C2)C1 [Compound A221] | > 10 µM | 80 to 100% |  | 
CCOC(=O)N1CC2(CC[C@@H](N3CCN(c4cc(F)cnc4-c4ccnc5[nH]ccc45)CC3)C2)C1 [Compound A30] |  |  | > 10 µM | 80 to 100%
CCOC(=O)N1CC2(CC[C@@H](N3CCN(c4cc(F)cnc4-c4ccc(C#N)cn4)CC3)C2)C1 [Compound A234] | > 10 µM | 80 to 100% |  | 
CCOC(=O)N1CC2(CC[C@@H](N3CCN(c4cc(F)cnc4-c4ccc(C)nc4OC)CC3)C2)C1 [Compound A116] |  |  | > 10 µM | 80 to 100%
CCOC(=O)N1CC2(CC[C@@H](N3CCN(c4cc(F)cnc4-c4cnc(C(F)F)cn4)CC3)C2)C1 [Compound A253] | > 10 µM | 80 to 100% |  | 
CCOC(=O)N1CC2(CC[C@@H](N3CCN(c4cc(Cl)cnc4C4CC5(COC5)C4)CC3)C2)C1 [Compound A279] | > 10 µM | 80 to 100% |  | 
CCOC(=O)N1CC2(CC[C@@H](N3CCN(c4cc(F)cnc4-c4cnn(C(F)(F)F)c4)CC3)C2)C1 [Compound A285] | > 10 µM | 80 to 100% |  | 
CCOC(=O)N1CC2(CC[C@@H](N3CCN(c4cc(C#N)cnc4-c4cnccn4)CC3)C2)C1 [Compound A272] | > 10 µM | 19 to 49.9% |  | 
CCOC(=O)N1CC2(CC[C@@H](N3CCN(c4cc(F)cnc4-c4cncc(C(C)(C)O)c4)CC3)C2)C1 [Compound A41] |  |  | > 10 µM | 80 to 100%
CCOC(=O)N1CC2(CC[C@@H](N3CCN(c4cc(F)cnc4-c4ccc(O)cc4F)CC3)C2)C1 [Compound A136] |  |  | > 10 µM | 80 to 100%
CCOC(=O)N1CC2(CC[C@@H](N3CCN(c4cc(F)cnc4-c4ccc(=O)n(C)c4)CC3)C2)C1 [Compound A123] |  |  | > 10 µM | 80 to 100%
CCOC(=O)N1CC2(CC[C@@H](N3CCN(c4cc(F)cnc4-c4cnc5c(cnn5C)c4)CC3)C2)C1 [Compound A129] |  |  | > 10 µM | 80 to 100%
CCOC(=O)N1CC2(CC[C@@H](N3CCN(c4cc(Cl)cnc4-c4ccc(F)cn4)CC3)C2)C1 [Compound A252] | > 10 µM | 80 to 100% |  | 
CCOC(=O)N1CC2(CC[C@@H](N3CCN(c4cc(F)cnc4-c4cncc(OCC)c4)CC3)C2)C1 [Compound A122] |  |  | > 10 µM | 80 to 100%
CCOC(=O)N1CC2(CC[C@@H](N3CCN(c4cc(F)cnc4-c4ccc5c(c4)nnn5C)CC3)C2)C1 [Compound A176] | > 10 µM | 80 to 100% |  | 
CCOC(=O)N1CC2(CC[C@H](N3CCC(c4cc(F)cnc4-c4ccc(F)cn4)CC3)C2)C1 [Compound A293] | > 10 µM | 80 to 100% |  | 
CCOC(=O)N1CC2(CC[C@@H](N3CCN(c4cc(F)cnc4-c4ccc(OC(F)F)nc4)CC3)C2)C1 [Compound A189] | > 10 µM | 80 to 100% |  | 
CCOC(=O)N1CC2(CC[C@@H](N3CCN(c4cc(F)cnc4NC4CC5(COC5)C4)CC3)C2)C1 [Compound A288] | > 10 µM | 19 to 49.9% |  | 
CCOC(=O)N1CC2(CCC(N3CCN(c4cccnc4N4CCC(OC)CC4)CC3)C2)C1 (stereo not shown) [Compound A216] | > 10 µM | 80 to 100% |  | 
CCOC(=O)N1CC2(CC[C@@H](N3CCN(c4cc(F)cnc4-c4ccnn4CC(C)C)CC3)C2)C1 [Compound A77] |  |  | > 10 µM | 80 to 100%
CCOC(=O)N1CC2(CC[C@@H](N3CCN(c4cc(F)cnc4-c4cc(C)cnc4F)CC3)C2)C1 [Compound A108] |  |  | > 10 µM | 80 to 100%

Compound | EC50 ([1]; FLIPR) | Emax (M4 mAChR; cAMP assay) | EC50 ([1]; FLIPR calcium) | Emax (M4 mAChR; cAMP TR-FRET with forskolin)
CCOC(=O)N1CC2(CC[C@@H](N3CCN(c4cc(F)cnc4-c4ccc5nn(C)cc5c4)CC3)C2)C1 [Compound A33] |  |  | > 10 µM | 80 to 100%
CCOC(=O)N1CC2(CC[C@@H](N3CCN(c4cc(F)cnc4-c4ccc5c(c4)ncn5C)CC3)C2)C1 [Compound A131] |  |  | > 10 µM | 80 to 100%
CCOC(=O)N1CC2(CC[C@@H](N3CCN(c4cc(F)cnc4-c4cn(C)c5ncccc45)CC3)C2)C1 [Compound A164] | > 10 µM | 50 to 79.9% |  | 
CCOC(=O)N1CC2(CC[C@@H](N3CCN(c4cc(F)cnc4-c4cnn(CCF)c4)CC3)C2)C1 [Compound A171] | > 10 µM | 80 to 100% |  | 
CCOC(=O)N1CC2(CC[C@@H](N3CCN(c4cc(F)cnc4-c4cc(C)cnc4OC)CC3)C2)C1 [Compound A50] |  |  | > 10 µM | 50 to 79.9%
CCOC(=O)N1CC2(CC[C@@H](N3CCN(c4cc(F)cnc4-c4ccc(OC)nc4C)CC3)C2)C1 [Compound A137] |  |  | > 10 µM | 80 to 100%
CCOC(=O)N1CC2(CC[C@@H](N3CCN(c4cc(F)cnc4OC4CCOCC4)CC3)C2)C1 [Compound A229] | > 10 µM | 80 to 100% |  | 
CCOC(=O)N1CC2(CC[C@@H](N3CCN(c4cc(F)cnc4-n4cnc(C)c4)CC3)C2)C1 [Compound A290] | > 10 µM | 80 to 100% |  | 
CCOC(=O)N1CC2(CC[C@@H](N3CCN(c4cc(F)cnc4-c4ccc(OC)c(CO)c4)CC3)C2)C1 [Compound A72] |  |  | > 10 µM | 50 to 79.9%
CCOC(=O)N1CC2(CC[C@@H](N3CCN(c4cc(F)cnc4-c4ccccn4)CC3)C2)C1 [Compound A227] | > 10 µM | 80 to 100% |  | 
CCOC(=O)N1CC2(CC[C@@H](N3CCN(c4cc(F)cnc4-c4c[nH]nc4C(F)(F)F)CC3)C2)C1 [Compound A85] |  |  | > 10 µM | 80 to 100%
CCOC(=O)N1CC2(CC[C@@H](N3CCN(c4cc(F)cnc4-c4cccnc4C)CC3)C2)C1 [Compound A109] |  |  | > 10 µM | 80 to 100%
CCOC(=O)N1CC2(CC[C@@H](N3CCN(c4cc(F)cnc4-c4ccc(=O)n(CC)c4)CC3)C2)C1 [Compound A155] | > 10 µM | 80 to 100% |  | 
CCOC(=O)N1CC2(CC[C@@H](N3CCN(c4cc(F)cnc4-c4cnn(C(C)C)c4)CC3)C2)C1 [Compound A195] | > 10 µM | 50 to 79.9% |  | 
CCOC(=O)N1CC2(CC[C@@H](N3CCN(c4cc(F)cnc4-c4ccc(=O)[nH]c4C)CC3)C2)C1 [Compound A201] | > 10 µM | 80 to 100% |  | 
CCOC(=O)N1CC2(CC[C@@H](N3CCN(c4cc(F)cnc4-c4ccc(CO)s4)CC3)C2)C1 [Compound A88] |  |  | > 10 µM | 80 to 100%
CCOC(=O)N1CC2(CC[C@@H](N3CCN(c4cccnc4N4CCCCC4)CC3)C2)C1 [Compound A215] | > 10 µM | 80 to 100% |  | 
CCOC(=O)N1CC2(CC[C@@H](N3CCN(c4cc(F)cnc4-c4cccc(F)c4CO)CC3)C2)C1 [Compound A162] | > 10 µM | 80 to 100% |  | 
CCOC(=O)N1CC2(CC[C@@H](N3CCN(c4cc(F)cnc4-c4ccc(N(C)C)nc4)CC3)C2)C1 [Compound A56] |  |  | > 10 µM | 80 to 100%
CCOC(=O)N1CC2(CC[C@@H](N3CCN(c4cc(F)cnc4-c4cnc(C5CC5)nc4)CC3)C2)C1 [Compound A183] | > 10 µM | 80 to 100% |  | 
CCOC(=O)N1CC2(CC[C@@H](N3CCN(c4cc(F)cnc4-c4ccc(OC)nc4F)CC3)C2)C1 [Compound A180] | > 10 µM | 80 to 100% |  | 
CCOC(=O)N1CC2(CC[C@@H](N3CCN(c4cc(Cl)cnc4-c4ccc(C)nn4)CC3)C2)C1 [Compound A251] | > 10 µM | 80 to 100% |  | 
CCOC(=O)N1CC2(CC[C@@H](N3CCN(c4cc(F)cnc4-c4cnn(C(C)C)n4)CC3)C2)C1 [Compound A257] | > 10 µM |  |  | 
CCOC(=O)N1CC2(CC[C@@H](N3CCN(c4cccnc4OC4CCC4)CC3)C2)C1 [Compound A5, (R)-ethyl 6-(4-(2-cyclobutoxypyridin-3-yl)piperazin-1-yl)-2-azaspiro[3.4]octane-2-carboxylate] |  |  | > 10 µM | 
